Measured values from ChEMBL document CHEMBL3813680, “Discovery of a 2-hydroxyacetophenone derivative as an outstanding linker to enhance potency and β-selectivity of liver X receptor agonist” (Bioorg Med Chem, 2016).
Calls of active or inactive are those of the source. The rule behind the calls is not given here.

Tests used:
Mus musculus [1] = assay: Antiatherosclerosis activity in LDL receptor knock out mouse model assessed as decrease in TC levels at 10 mg/kg, po by HPLC analysis relative to control; assay type: functional; set-up: scale not given: the % may be the effect or the level left
Mus musculus [2] = assay: Antiatherosclerosis activity in LDL receptor knock out mouse model assessed as increase in TG levels at 10 mg/kg, po by HPLC analysis relative to control; assay type: functional
Mus musculus [3] = assay: Antiatherosclerosis activity in LDL receptor knock out mouse model assessed as decrease in area of lipid accumulation at 10 mg/kg, po by HPLC analysis relative to control; assay type: functional; set-up: scale not given: the % may be the effect or the level left
Mus musculus [4] = assay: Antiatherosclerosis activity in LDL receptor knock out mouse model assessed as […] in HDL-C levels at 10 mg/kg, po by HPLC analysis relative to control; assay type: functional; set-up: scale not given: the % may be the effect or the level left
Mus musculus [5] = assay: Antiatherosclerosis activity in LDL receptor knock out mouse model assessed as decrease in LDL-C levels at 10 mg/kg, po by HPLC analysis relative to control; assay type: functional; set-up: scale not given: the % may be the effect or the level left
[6] = Intrinsic clearance in hamster liver microsomes at 1 umol/L; assay type: ADME; conditions: cricetinae, read-out: CLH
CHO-K1 = assay: Selectivity ratio of EC50 for GAL4 fused LXRalpha (unknown origin) transfected in CHOK1 cells to EC50 for GAL4 fused LXRbeta-LBD (unknown origin) transfected in CHOK1 cells; assay type: cell-based; conditions: Homo sapiens
[7] = target: T1, Oxysterols receptor LXR-beta (Homo sapiens, UniProt P55055); assay: Agonist activity at GAL4 fused LXRbeta-LBD (unknown origin) transfected in CHOK1 cells after 24 hrs by luciferase reporter gene assay
T1 sequence (P55055 whole entry): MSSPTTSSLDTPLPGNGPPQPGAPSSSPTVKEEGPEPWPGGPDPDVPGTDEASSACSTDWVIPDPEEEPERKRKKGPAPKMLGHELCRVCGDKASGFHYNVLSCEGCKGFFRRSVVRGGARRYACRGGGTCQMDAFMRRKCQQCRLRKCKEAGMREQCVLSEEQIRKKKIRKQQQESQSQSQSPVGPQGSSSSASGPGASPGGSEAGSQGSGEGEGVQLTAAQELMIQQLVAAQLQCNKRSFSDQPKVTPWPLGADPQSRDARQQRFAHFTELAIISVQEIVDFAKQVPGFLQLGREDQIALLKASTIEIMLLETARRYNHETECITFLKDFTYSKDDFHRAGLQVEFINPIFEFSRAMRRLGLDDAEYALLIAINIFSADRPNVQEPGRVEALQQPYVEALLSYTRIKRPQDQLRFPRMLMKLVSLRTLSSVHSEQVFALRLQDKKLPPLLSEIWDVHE

[8] = Intrinsic clearance in mouse liver microsomes at 1 umol/L; assay type: ADME; conditions: read-out: CLH
[9] = target: T2, Oxysterols receptor LXR-alpha (Homo sapiens, UniProt Q13133); assay: Agonist activity at GAL4 fused LXRalpha (unknown origin) transfected in CHOK1 cells after 24 hrs by luciferase reporter gene assay
T2 sequence (Q13133 whole entry): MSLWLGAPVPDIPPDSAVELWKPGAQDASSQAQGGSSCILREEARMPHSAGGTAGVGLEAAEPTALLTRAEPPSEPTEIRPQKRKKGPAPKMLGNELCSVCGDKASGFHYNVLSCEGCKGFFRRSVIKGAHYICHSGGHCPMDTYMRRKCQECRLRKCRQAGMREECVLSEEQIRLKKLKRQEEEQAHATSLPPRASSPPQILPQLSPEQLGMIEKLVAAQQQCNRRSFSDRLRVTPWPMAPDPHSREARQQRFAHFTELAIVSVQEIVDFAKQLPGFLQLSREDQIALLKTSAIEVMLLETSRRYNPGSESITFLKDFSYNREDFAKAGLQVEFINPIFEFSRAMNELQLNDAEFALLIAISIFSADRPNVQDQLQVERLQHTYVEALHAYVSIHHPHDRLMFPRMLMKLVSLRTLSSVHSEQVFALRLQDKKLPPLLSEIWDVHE

[10] = target: T3, Oxysterols receptor LXR-beta (Homo sapiens) (UniProt P55055); assay: Agonist activity at GAL4 fused LXRbeta-LBD (unknown origin) transfected in CHOK1 cells at 10 uM after 24 hrs by luciferase reporter gene assay in presence of T0901317; assay type: cell-based; conditions: CHO-K1
T3 sequence (whole entry): T1 sequence (P55055 whole entry)

[11] = Intrinsic clearance in human liver microsomes at 1 umol/L; assay type: ADME; conditions: read-out: CLH
[12] = target: T4, Oxysterols receptor LXR-alpha (Homo sapiens) (UniProt Q13133); assay: Agonist activity at GAL4 fused LXRalpha (unknown origin) transfected in CHOK1 cells at 10 uM after 24 hrs by luciferase reporter gene assay in presence of T0901317; assay type: cell-based; conditions: CHO-K1
T4 sequence (whole entry): T2 sequence (Q13133 whole entry)

[13] = target: T4, Oxysterols receptor LXR-alpha (Homo sapiens); assay: Agonist activity at GAL4 fused LXRalpha (unknown origin) transfected in CHOK1 cells at 10 uM after 24 hrs by luciferase reporter gene assay; assay type: cell-based; conditions: CHO-K1
[14] = Cmax in mouse plasma at 100 mg/kg, po measured up to 24 hrs by HPLC-LC-MS/MS analysis; assay type: ADME, organism-based; set-up: dose 100 mg/kg, route oral
[15] = AUC in mouse plasma at 100 mg/kg, po measured up to 24 hrs by HPLC-LC-MS/MS analysis; assay type: ADME, organism-based; set-up: dose 100 mg/kg, time < 24 hr, route oral
[16] = target: T3, Oxysterols receptor LXR-beta (Homo sapiens); assay: Agonist activity at GAL4 fused LXRbeta-LBD (unknown origin) transfected in CHOK1 cells at 10 uM after 24 hrs by luciferase reporter gene assay; assay type: cell-based; conditions: CHO-K1

SMILES | EC50 [7] | EC50 [9] | Emax [10] | Emax [12] | Activity [13] | Ratio EC50 (CHO-K1) | further results
O=S(=O)(c1ccccc1)N(CC(F)(F)F)c1ccc(C(O)(C(F)(F)F)C(F)(F)F)cc1 [T091317] |  |  |  |  |  |  | Activity (Mus musculus [1]): 96%; Activity (Mus musculus [2]): 465%; Activity (Mus musculus [3]): 40%; Activity (Mus musculus [4]): 47%; Activity (Mus musculus [5]): 55%
CCCc1cc(C(O)(C(F)(F)F)C(F)(F)F)cc(CCC)c1OCC#CCN1C(=O)NC(C)(c2ccc(OC(C)C)cc2)C1=O (stereo not drawn) | 0.61 µM | 0.86 µM | 149% | 27% |  | 1.41 | 
CCCc1cc(C(O)(C(F)(F)F)C(F)(F)F)ccc1Oc1ccc(C(=O)CN2C(=O)NC(C)(c3ccc(OC(C)C)cn3)C2=O)c(O)c1 (single isomer, unassigned; (+)) [listing 1 of 2 here] |  |  | 269% | 25% | inactive |  | 
CCCc1cc(C(O)(C(F)(F)F)C(F)(F)F)cc(CCC)c1OCCCCN1C(=O)NC(C)(c2ccc(OC(C)C)cc2)C1=O (racemic) |  |  |  |  |  |  | Cmax [14]: 406 ng/mL; AUC at 24 h [15]: 3420 ng·h/mL
CCCc1cc(C(O)(C(F)(F)F)C(F)(F)F)cc(CCC)c1OC/C=C\CN1C(=O)NC(C)(c2ccc(OC(C)C)cc2)C1=O (stereo not drawn) |  |  | 1% | 0% | inactive |  | Activity [16]: inactive
CCCc1cc(C(O)(C(F)(F)F)C(F)(F)F)ccc1Oc1ccc(C(=O)CN2C(=O)NC(C)(c3ccc(OC(C)C)cc3)C2=O)c(C)c1 (stereo not drawn) | 0.064 µM | 0.4 µM | 264% | 71% |  | 6.25 | 
CCCc1cc(C(O)(C(F)(F)F)C(F)(F)F)ccc1Oc1ccc(C(=O)CN2C(=O)NC(C)(c3ccc(OC(C)C)cn3)C2=O)c(O)c1 (racemic) [listing 1 of 2 here] |  |  | 329% | 68% |  | 5.69 | 
CCCc1cc(C(O)(C(F)(F)F)C(F)(F)F)cc(CCC)c1OC/C=C/CN1C(=O)NC(C)(c2ccc(OC(C)C)cc2)C1=O (stereo not drawn) | 0.8 µM | 1.23 µM | 182% | 40% |  | 1.54 | 
CCCc1cc(C(O)(C(F)(F)F)C(F)(F)F)ccc1Oc1ccc(C(=O)CN2C(=O)NC(C)(c3ccc(OC(C)C)cn3)C2=O)c(O)c1 (single isomer, unassigned; (-)) |  |  | 255% | 164% |  |  | 
CCCc1cc(C(O)(C(F)(F)F)C(F)(F)F)ccc1Oc1ccc(C(=O)CN2C(=O)NC(C)(c3ccc(OC(C)C)cn3)C2=O)c(O)c1 (single isomer, unassigned; (+)) [listing 2 of 2 here] | 2.9 µM |  |  |  |  |  | 

Further lines, with some results ahead:

EC50 [7] | EC50 [9] | Emax [10] | Emax [12] | Activity [13] | SMILES | Ratio EC50 (CHO-K1) | further results
0.11 µM | 0.34 µM | 348% | 55% |  | CCCc1cc(C(O)(C(F)(F)F)C(F)(F)F)ccc1Oc1ccc(C(=O)CN2C(=O)NC(C)(c3ccc(OC(C)C)cc3)C2=O)c(O)c1 (stereo not drawn) | 3.09 | microsomal CLint at 1 µM [6]: 27 µL/min/mg; microsomal CLint at 1 µM [8]: 76 µL/min/mg; microsomal CLint at 1 µM [11]: 12 µL/min/mg
1.81 µM |  | 22% | 0% | inactive | CCCc1cc(C(O)(C(F)(F)F)C(F)(F)F)ccc1Oc1ccc(CN2C(=O)NC(C)(c3ccc(OC(C)C)cc3)C2=O)cc1 (stereo not drawn) | > 5.52 | 
0.7 µM | 3.14 µM | 615% | 53% |  | CCCc1cc(C(O)(C(F)(F)F)C(F)(F)F)ccc1Oc1ccc(CCN2C(=O)NC(C)(c3ccc(OC(C)C)cc3)C2=O)c(C)c1 (stereo not drawn) | 4.89 | 
0.12 µM | 0.36 µM | 236% | 46% |  | CCCc1cc(C(O)(C(F)(F)F)C(F)(F)F)ccc1Oc1ccc(C(=O)CN2C(=O)NC(C)(c3ccc(OC(C)C)cc3)C2=O)cc1 (stereo not drawn) | 3 | 
1.88 µM |  | 223% | 1% | inactive | CCCc1cc(C(O)(C(F)(F)F)C(F)(F)F)ccc1Oc1ccc(CCN2C(=O)NC(C)(c3ccc(OC(C)C)cc3)C2=O)cc1 (stereo not drawn) | > 5.32 | 
2.85 µM | 2.89 µM | 126% | 23% |  | CCCc1cc(C(O)(C(F)(F)F)C(F)(F)F)ccc1Oc1cccc(CCN2C(=O)NC(C)(c3ccc(OC(C)C)cc3)C2=O)c1 (stereo not drawn) | 1.01 | 
1.66 µM |  | 534% | 0% | inactive | CCCc1cc(C(O)(C(F)(F)F)C(F)(F)F)ccc1Oc1ccc(CCN2C(=O)NC(C)(c3ccc(OC(C)C)cc3)C2=O)c(OC)c1 (stereo not drawn) | 6.02 | 
2.87 µM |  | 284% | 1% | inactive | CCCc1cc(C(O)(C(F)(F)F)C(F)(F)F)ccc1Oc1ccc(CCN2C(=O)NC(C)(c3ccc(OC(C)C)cc3)C2=O)c(O)c1 (stereo not drawn) | 3.48 | 
0.5 µM | 1.96 µM | 429% | 53% |  | CCCc1cc(C(O)(C(F)(F)F)C(F)(F)F)ccc1Oc1cccc(CN2C(=O)NC(C)(c3ccc(OC(C)C)cc3)C2=O)c1 (stereo not drawn) | 3.92 | 
0.36 µM | 3.74 µM | 306% | 38% |  | CCCc1cc(C(O)(C(F)(F)F)C(F)(F)F)ccc1Oc1ccc(C(=O)CN2C(=O)NC(C)(c3ccc(OC(C)C)cc3)C2=O)c(OC)c1 (stereo not drawn) | 10.4 | 
0.058 µM | 0.33 µM |  |  |  | CCCc1cc(C(O)(C(F)(F)F)C(F)(F)F)ccc1Oc1ccc(C(=O)CN2C(=O)NC(C)(c3ccc(OC(C)C)cn3)C2=O)c(O)c1 (racemic) [listing 2 of 2 here] |  | microsomal CLint at 1 µM [6]: 11 µL/min/mg; microsomal CLint at 1 µM [8]: 24 µL/min/mg; microsomal CLint at 1 µM [11]: 7 µL/min/mg
2.33 µM |  | 176% | 5% | inactive | CCCc1cc(C(O)(C(F)(F)F)C(F)(F)F)ccc1Oc1ccc(C(O)CN2C(=O)NC(C)(c3ccc(OC(C)C)cc3)C2=O)cc1 (stereo not drawn) | 4.29 | 
